Test results: patent publication US7820405B2, “Specific bacterial inclusions in bone marrow cells indicate systematic lupus erthematosus, and treatment for lupus” (Sphingomanas Research Partners, L.P., priority 2005, dated 2010)

Test system: intra-erythrocytic bacterial structures (Mycoplasma haemosapiens)
Format: in vivo, human
Details: Patient A, during doxycycline 100 mg twice daily; declined from about 16% before therapy

C[C@H]1c2cccc(O)c2C(=O)C2=C(O)[C@]3(O)C(=O)C(C(N)=O)=C(O)[C@@H](N(C)C)[C@@H]3[C@@H](O)[C@@H]21 [doxycycline]
percentage of parasitized erythrocytes: approximately 8%
